Measurements as given in publication PMC7844538, “Peptide-Conjugated Phosphorodiamidate Morpholino Oligomers Retain Activity against Multidrug-Resistant Pseudomonas aeruginosa In Vitro and In Vivo” (mBio, 2021).

Columns and labels:
[1] = test system: P. aeruginosa strain MB447; assay: Acute pneumonia mouse model with XDR strain, survival; type: in vivo, Pseudomonas aeruginosa in BALB/c mice; settings: for survival at day 4: 15 mg/kg intratracheal at 15 min, then intranasal at 24 h (legend: 6 h); for Median survival: 15 mg/kg, two treatments, Kaplan-Meier
Experimental: To test whether PPMOs retained in vivo activity in an XDR strain, we utilized the AcpP-RXR(5′) PPMO in the acute pneumonia model using XDR P. aeruginosa strain MB447, a carbapenem-resistant bloodstream isolate. […] Mice were infected intratracheally followed by intratracheal treatment 15 min postinfection with either 15 mg/kg of AcpP-RXR(5′), scrambled control PPMO (Scr), PBS, 15 mg/kg of meropenem, or 15 mg/kg of tobramycin, and the bacterial burden was determined at 24 h postinfection.
Mice were infected intratracheally with P. aeruginosa strain MB447 (∼10^7 CFU/mouse). (A) Mice were treated intratracheally 15 min postinfection with 15 mg/kg/24 h of AcpP-RXR(5′) and the corresponding scrambled PPMO, tobramycin, and meropenem and were euthanized at 24 h, and lung tissues were processed as previously described. All samples were plated for viable CFU on PIA. Each symbol represents the value for a single mouse. Error bars represent SEM. Statistical differences were determined using one-way ANOVA and indicated as follows: ****, P < 0.0001; **, P < 0.01; *, P < 0.05. (B) Mice were treated intratracheally 15 min postinfection and intranasally at 6 h postinfection (a total of two treatments) with the same compounds and doses. Mice were monitored for 4 days postinfection.
P. aeruginosa strains PA103, PA103 P1-lux, and MB447 were grown on Pseudomonas isolation agar (PIA) for 16 to 18 h at 37°C and suspended in PBS to an optical density at 600 nm (OD600) of 0.5, corresponding to ∼10^9 CFU/ml. Inocula were adjusted spectrophotometrically to obtain the desired sublethal challenge dose in a volume of 25 μl. Six- to 8-week-old female BALB/c mice (Jackson Laboratories, Bar Harbor, ME) were anesthetized by intraperitoneal injection of 0.2 ml of a mixture of ketamine (6.7 mg/ml) and xylazine (1.3 mg/ml). Mice were infected by noninvasive intratracheal instillation of dilutions of P. aeruginosa strain as indicated ([34]).

P. aeruginosa MB447 = assay: MIC against XDR strain MB447; type: cell-based, Pseudomonas aeruginosa; settings: medium not stated
Experimental: MIC assays of PPMOs were determined according to the Clinical and Laboratory Standards Institute (CLSI) broth microdilution method ([29]), using the method previously described ([14]). The assays were performed in 96-well tissue culture plates (Thermo Fisher Scientific, Waltham, MA). All reagents were analytical grade and were obtained from Sigma-Aldrich (St. Louis, MO), Acros Organics (Geel, Belgium), UT Southwestern Campus Pharmacy, or Thermo Fisher Scientific (Waltham, MA). Morpholinopropanesulfonic acid (MOPS) minimal medium was prepared as previously described ([30], [31]).

[2] = test system: P. aeruginosa PAO1 biofilm; assay: Established biofilm on MBEC pegs, crystal violet (total biomass); type: cell-based, Pseudomonas aeruginosa; settings: PAO1, 24 h biofilm, dosed at 24, 32, 40 h, read at 48 h; tobramycin 0.625 µg/ml, piperacillin-tazobactam 0.25 µg/ml, PPMO 0.25 µM (legend 2.5 μM)
Experimental: We previously reported that treatment with PPMO alone was effective in both preventing and decreasing established P. aeruginosa biofilm in vitro ([14]). Here, we aimed to determine whether combining a PPMO with a traditional antibiotic (that also had minimal biofilm-inhibitory activity on its own) could enhance biofilm eradication compared to either drug alone. Biofilms were established in minimal biofilm eradication concentration (MBEC) plates by growing P. aeruginosa PAO1 at 37°C. At 24 h postinoculation, lids with established biofilm were moved to new 96-well plates containing fresh media with either antibiotic only (0.625 µg/ml tobramycin or 0.25 µg/ml piperacillin-tazobactam), PPMO only [0.25 µM either AcpP-RXR(3′) or RpsJ-RXR(3′)], or PPMO plus antibiotic as indicated. We hypothesized that the combination of antibiotics and PPMOs targeting a similar cellular process, such as bacterial cell wall (AcpP and piperacillin-tazobactam) or protein synthesis (RpsJ and tobramycin) would enhance biofilm eradication.
FIG 1 PPMOs in combination with traditional antibiotics display enhanced activity and reduce established P. aeruginosa strain PAO1 biofilm. […] Statistical differences were determined by one-way ANOVA and indicated as follows: ***, P < 0.0001; **, P < 0.001; *, P < 0.05; n.s., not significant. […]

[3] = test system: P. aeruginosa PAO1 biofilm; assay: Established biofilm on MBEC pegs, viability (resazurin, CFU); type: cell-based, Pseudomonas aeruginosa; settings: PAO1, 24 h biofilm, dosed at 24, 32, 40 h, read at 48 h; tobramycin 0.625 µg/ml, PPMO 0.25 µM (legend 2.5 μM)
Experimental: PAO1 biofilms were established on MBEC pegs for 24 h and then treated either with 0.625 μg/ml tobramycin, 0.25 μg/ml piperacillin/tazobactam (Pip/Tazo), 2.5 μM AcpP-RXR(3′), 2.5 μM RpsJ-RXR(3′) or with a combination of PPMO and antibiotic at 24, 32, and 40 h. […]
The viability and metabolic state of biofilm-associated cells were determined using resazurin dye ([17]). […] This time point was previously optimized based on the time needed for the untreated control cells to reach maximum fluorescence. The plates were read at an excitation of 530 nm and emission of 590 nm on a Synergy BioTek plate reader. Viable CFU from the biofilms were also determined by rinsing MBEC pegs in PBS three times to remove planktonic bacteria, followed by cutting the peg off the base with a hot scalpel and placing it in a 14 ml Falcon tube containing 1 ml PBS. […]

P. aeruginosa PA103 = assay: Acute pneumonia mouse model, intraperitoneal PPMO alone or with tobramycin, survival; type: in vivo, Pseudomonas aeruginosa in BALB/c mice; settings: intraperitoneal at 6, 12 and 24 h; Kaplan-Meier
Experimental: Mice were treated by intraperitoneal injection of RpsJ-RXR(3′) (15 mg/kg), tobramycin (15 mg/kg), scrambled PPMO (15 mg/kg) alone or in combination (scrambled PPMO plus tobramycin or RpsJ PPMO plus tobramycin) at 6, 12, and 24 h for a total of three treatments after intratracheal infection with a […] dose of P. aeruginosa PA103. Mice were monitored for up to 4 days postinfection. […] Mice treated with RpsJ-RXR(3′) or tobramycin had 50 to 60% increased survival compared to PBS or scrambled control, respectively.
FIG 4 PPMOs work in concert with traditional antibiotics to improve survival in acute lung model of infection. […] Mice were monitored for 4 days postinfection. Results are represented by Kaplan-Meier survival curves and were analyzed by log rank test (log rank test, RpsJ versus PBS, P < 0.001; RpsJ versus Scr, P < 0.05; RpsJ versus RpsJ plus tobramycin, P < 0.05; Scr versus Scr plus tobramycin, P = 0.1778. Median survival: PBS, 36 h; Scr, 48 h; RpsJ, tobramycin, and combination treatments, undefined). […]
Mice were infected as described above and treated either intraperitoneally or intranasally with 15 mg/kg/treatment of PPMO or corresponding controls as indicated. Animals were treated at 6, 12, or 24 h postinfection, with a total of three doses and were monitored for survival up to 4 days postinfection.

| Compound | survival at day 4 [1] [%] | Median survival [1] | MIC of strain MB447 against antibiotic (P. aeruginosa MB447) [µM] | reduction of established biofilm mass compared to untreated [2] | decrease of biofilm cell viability compared to no treatment [3] [%] | Median survival (P. aeruginosa PA103) |
| --- | --- | --- | --- | --- | --- | --- |
| C[C@@H](O)[C@H]1C(=O)N2C(C(=O)O)=C(S[C@@H]3CN[C@H](C(=O)N(C)C)C3)[C@H](C)[C@H]12 [meropenem] | 0 | 34 h | 32 | – | – | – |
| NC[C@H]1O[C@H](O[C@H]2[C@H](O)[C@@H](O[C@H]3O[C@H](CO)[C@@H](O)[C@H](N)[C@H]3O)[C@H](N)C[C@@H]2N)[C@H](N)C[C@@H]1O [tobramycin] | 67 | undefined | 8 | 50% | 50 | undefined |
| piperacillin-tazobactam | – | – | – | no impact on established biofilm | – | – |
